Assay: Human HepG2 cell viability assay in 384 well format
Format: toxicity, cell-based
Parameters: dose 125 nL, time 70.5 hour; cytotoxicity at 70.5 h: concentration not given beside the values
Settings: HepG2 cells, read-out: Inhibition

SMILES	cytotoxicity at 70.5 h [%]
COCCNC(=O)c1cc2c(c3ccccc3n2C)n1C(=O)N(C)C	-9.07
O=C(NC1CCC1)C1=NOC2(CCN(Cc3ccc(F)cc3)C2)C1 (configuration not stated)	14.1
CCNC(=O)c1c2c(N3CCN(C)CC3)ncnc2n2ccccc12	2.84
COc1cccc2c1OCC(C(=O)N1CCN(CCS(C)(=O)=O)CC1)C2 (configuration not stated)	-4.99
COc1ccccc1-n1nc(CC(C)C)nc1CSc1nnc(N)s1	-15.9
CN1CCC(Cc2noc(CCc3nc4ccccc4nc3O)n2)CC1	-7.26
O=C(O)[C@@H]1CN(C2CCCCC2)C[C@H]1C1CC1	-13.9
CCCc1ccc(CN2CCC3(CC2)CNC(=O)C3)o1	21.8
CC(C)c1cc(CN(C)C(=O)CN2CCNC2=O)no1	18.6
OCCN(Cc1ccccc1)Cc1nc(-c2ccc3c(c2)OCO3)no1	-9.5
O=C(O)c1cc(-c2ccncc2)cc(S(=O)(=O)NCc2ccccn2)c1	-4.27
Cc1csc(CNc2nc3c(s2)c(C)nn3C)n1	-4.74
O=C(NCC(F)F)c1ccc(S(=O)(=O)NCCc2c[nH]cn2)cc1	-6.02
CCOC(=O)CC1CCCCN1C(=O)c1cc(=O)[nH]c(=O)[nH]1 (configuration not stated)	11.7
Cc1ccccc1CN1C[C@@H](CN(C)CCO)[C@@H](CO)C1	-11.6
COCCC(=O)N1C[C@H]2CC[C@@H]1CN(C1Cc3ccccc3C1)C2	-10
O=C(C1CCOCC1)N1CC[C@@](O)(c2ccccc2)[C@H]2CCCC[C@@H]21	24.9
CCC(CO)N(Cc1cccc(-n2cccn2)c1)Cc1cccs1 (configuration not stated)	-4.44
COCCN1CCC(CN(Cc2ccncc2)C2CCCCC2)CC1	-6.59
Cc1nc2c(c(N3CCCOCC3)n1)CCN(c1nccs1)CC2	-6.82
CC(O)Cc1cn(CC2CCN(c3nccc4occc34)CC2)nn1 (configuration not stated)	4.74
O=C(CCCn1cncn1)N1CCCC1c1nc(-c2ccccc2)no1 (configuration not stated)	-1.82
COc1cc(N[C@@H](Cc2ccccc2)C(N)=O)ncn1	-5.19

SMILES	cytotoxicity at 70.5 h [%]
Fc1cccc(-c2noc3c2CN(Cc2cncn2C2CC2)CC3)c1	-11.3
CN(C)S(=O)(=O)N1C[C@@H]2CC[C@H](C1)N(CCC(=O)NCc1ccco1)C2	2.74
CC(C)N1CCOC(CC(=O)N2CCCN(Cc3ccncc3)CC2)C1 (configuration not stated)	15.7
CCc1ccc(CN2CCN(C)C3(CCC(=O)N(CC4CC4)CC3)C2)o1 (configuration not stated)	-1.68
O=C(CSc1ccccn1)N1CCC(OCc2cccnc2)CC1	-18.6
COc1nccc(N2CC[C@@H](N3CCN(C)CC3)[C@H](O)C2)c1C#N	-6.47
COc1ccc(-c2cc(N)ccn2)c(OC)c1OC	-9.71
CN1CCN(CC(C)(C)C)CC1CCO (configuration not stated)	-3.64
Cc1occc1C(=O)N1CCCC1c1ccc(C(=O)N2CCOCC2)s1 (configuration not stated)	9.73
COC(C)(C)CNC(=O)C1CCC(=O)N(C2CCCC2)C1 (configuration not stated)	0.695
COc1ccc(CN2C[C@@H]3CC[C@H](C2)N(S(C)(=O)=O)C3)cc1	-7.94
C/C=C(\C)CN1C[C@@H](NC(=O)c2ccc(O)c(Cl)c2)C[C@H]1C(=O)NCC	-11
Cc1nccc(N2CCC(=O)N(CC3CC3)C(C(C)C)C2)n1 (configuration not stated)	-1.5
Nc1nc(CCCNC(=O)c2ccc(C3CCCNC3)cc2)cs1 (configuration not stated)	-7.45
NC(=O)COc1ccc(CN2CCNC(C(=O)NC3CC3)C2)cc1Cl (configuration not stated)	-10.1
CCNC(=O)Cn1ncc(N(C)CCc2ccccc2)cc1=O	8.48
CC(=O)c1cccc(-c2nc3c([nH]2)CCNC3)c1F	-13.2
CCSCC(C)NCc1cn2ccccc2n1 (configuration not stated)	-20.2
CSc1ccc(CN(C(=O)c2cc(=O)[nH]c(=O)[nH]2)C2CC2)cc1	6.51
O=C1NCCN1CCNc1cc(-c2ccncc2)nc2ccnn12	-10.3
CC(C)c1nc(CN(C)C(=O)c2ccc(CN3CCCCC3)cc2)cs1	-7.38
CCOc1ccccc1C(C(=O)O)N(C)CC1CCOCC1 (configuration not stated)	21.4
COc1ccc(N2CCN(C(=O)C3CN(C)C(=O)N3)CC2(C)C)cc1 (configuration not stated)	-8.78

SMILES	cytotoxicity at 70.5 h [%]
Cc1nc2c(C)cccc2cc1C(=O)N1CCC2(CC1)NCCNC2=O	-15.8
Cc1nc2ccccn2c1CN1C[C@@H](CN2CCOCC2)[C@@H](CO)C1	28.6
CN(CCc1ncnn1-c1ccccc1Cl)C1CCS(=O)(=O)C1 (configuration not stated)	-17.7
CS(=O)(=O)Cc1nc(C2CC2)nn1-c1ccccn1	4.03
CCS(=O)(=O)c1ncc(CN(C)Cc2cccc(OC)c2)n1CCOC	-6.87
CN1C(=O)CC(C(=O)O)C12CCN(Cc1cc(F)ccc1Cl)CC2 (configuration not stated)	-9.93
Cc1ncsc1-c1nc(Cc2cccs2)nn1C1CCN(C)CC1	-4.07
Cc1ccc(OC2(C(=O)O)CCN(C(=O)c3cccs3)CC2)cn1	17.4
CCCn1cnnc1CNC1CCCC1	5.01
CCCc1cc(C(=O)N(CC)Cc2ccncc2)[nH]n1	-7.59
CC1CN(CCC(=O)NCCc2cccnc2)Cc2ccccc2O1 (configuration not stated)	9.39
CCNC(=O)[C@@H]1C[C@H](NC(=O)c2cncnc2C)CN1Cc1ccsc1	-17
C[C@H](NC(=O)c1cccc(CCC(C)(C)O)c1)C(N)=O	-0.496
CN(C)C(=O)c1ccc(C2CCCN2C(=O)c2ccccc2N(C)C)s1 (configuration not stated)	-1.33
COC(=O)N1CCC(Oc2ccc(C(=O)NCCN(C)C)cc2Cl)CC1	-8.08
Cc1nc(CN2CCCC(CCc3ccccc3F)C2)c[nH]1 (configuration not stated)	1.04
CC(C)(Cn1cnc(-c2ccccc2)c1-c1ccco1)N1CCOCC1	-10.2
CCC(NC(=O)c1cnc(N(C)C)nc1C)c1ccncc1 (configuration not stated)	-6.22
O=C(NCCC1CN(Cc2c[nH]cn2)CCO1)c1ccccc1O (configuration not stated)	23
Cc1ocnc1C(=O)N(Cc1cccnc1)C[C@@H]1CCC(=O)N1	-8.79
CCOc1ncccc1Cn1cc(-c2cncnc2)nn1	-15.8
Cc1ccc2ncccc2c1CN1CC[C@H](N(C)C)[C@H](CCC(=O)O)C1	-7.41
Cc1ccsc1-c1nnc(SCC(=O)O)n1C(C)c1ccccc1 (configuration not stated)	-5.54

SMILES	cytotoxicity at 70.5 h [%]
CCN1CCCCC1C(=O)N1CCc2onc(-c3ccc(Cl)cc3)c2C1 (configuration not stated)	-12.9
COc1cccn(CC(=O)N(C)CCSC)c1=O	-12.7
CCN(Cc1ccc2cccc(O)c2n1)CC1CCCO1 (configuration not stated)	12.5
Cc1cc(C)c2c(N3CCCN(C(=O)C4CCC4)CC3)ncnc2n1	-6.75
CNC(=O)CCN1CCC(c2nnc(Cn3cccn3)n2C2CC2)CC1	-8.33
Oc1ccccc1N1CCN(c2ncnc3sc4c(c23)CCNC4)CC1	2.19
CCn1c(-c2ccccc2)nn(CC(=O)NCCc2ccc(C)s2)c1=O	13.9
OC1(CN2CCC(Oc3cccnc3)CC2)CNCCOC1 (configuration not stated)	-7.48
COC(=O)N1CCC2(CC1)N=C(CCC(C)C)NC2=O	-8.4
O=C(CCC1CCN(C(=O)c2cnco2)CC1)NCc1cccc(Cl)c1	-5.59
CC(=O)N[C@@H](CC(C)C)C(=O)N1CCC(n2cc(CO)nn2)CC1	-4.38
COc1ccc(-c2ccccc2CCN)c(OC)c1	-10.1
Cc1cnccc1NCCNC(=O)C1CCCN(Cc2ccco2)C1 (configuration not stated)	9.92
COCc1ccc(C(=O)N2CCc3c(ncnc3N3CCOCC3)C2)o1	-4.54
COc1cc(C)c(C2CC(=O)Nc3cc(NS(C)(=O)=O)ccc32)cc1C (configuration not stated)	0.99
CCCc1nnc2sc(C3CCN(CCOC)CC3)nn12	-3.34
COc1ccc(F)cc1NC(=O)NCC1(CN2CCOCC2)CC1	-0.333
CC(Nc1ncnc2sccc12)c1cnn(C)c1 (configuration not stated)	-12.3
CC(C)C[C@@H](N)C(=O)N(C)Cc1csc(C(C)C)n1	2.05
CC(C)=CCN1CCNC(=O)C1CC(=O)N1CCc2sccc2C1 (configuration not stated)	-3.67
CC(Nc1nc(-c2ccncc2)nc2c1CCNC2)c1ccccc1 (configuration not stated)	-9.03
COc1ccc(C(=O)NCc2ccon2)cc1F	-5.07
CCOC(=O)N1CCC2(CCCN(C3CCOCC3)C2=O)C1 (configuration not stated)	-8.17

SMILES	cytotoxicity at 70.5 h [%]
CCOCCCNc1nc2c(s1)c(C)nn2C	-5.29
CS(=O)(=O)NC1CCN(C(=O)c2coc(CN3CCOCC3)c2)CC1	-2.89
Cc1cc(C)c(C(=O)NC(CN2CCCC2)c2ccccc2)c(=O)[nH]1 (configuration not stated)	-20.3
Cc1oc(-c2cccc(F)c2F)nc1CN(C)CCC(C)(C)O	26.5
c1ccc2oc(N3CCCC4(CCOC4)C3)nc2c1 (configuration not stated)	-5.71
CC(=O)Nc1ccc(CN2C[C@H]3CC[C@@H]2CN(c2ncccn2)C3)cc1	-4.04
CCCc1nnc(NCCc2noc(C3CC3)n2)o1	-9.24
O=C1N(Cc2ccc(F)c(F)c2)CCCC1(O)CNCC1CCCCC1 (configuration not stated)	18.7
CCN1CCC(Cn2ccc3c(OC)c(OC)ccc3c2=O)C1 (configuration not stated)	-2.32
COc1ccc2c(c1)OCC(Cc1cncc(N)c1)C2 (configuration not stated)	8.44
Cc1[nH]c2c(F)cccc2c1CC(=O)NCc1csc(N(C)C)n1	39.7
O=C(O)c1ccnc(-c2ccnc(N3CCC(F)(F)CC3)n2)c1	21
O=C1NCCN2CCN(C(=O)Nc3ccc(-c4ccccc4)cc3)CC12 (configuration not stated)	10.4
O=C(CC1CCCCC1)N1C[C@H]2CC[C@@H]1CN(Cc1cccnc1)C2	-13.3
CNC(=O)[C@@H]1C[C@@H](NC(=O)c2cn(C)nc2C)CN1Cc1sccc1C	-2.42
COCCNC(=O)[C@@]12CCO[C@@H]1CCN(Cc1cc(C)on1)C2	7.02
CC(C)N1CCO[C@H]2CN(C(=O)c3ccsc3)C[C@H]21	-7.23
O=C(c1cccc(F)c1)N1CCC2(CC1)CN(c1ccccn1)CCO2	-8.22
CCOCC1CN(Cc2cccs2)Cc2nn(C)cc21 (configuration not stated)	-6.21
CN(Cc1ccncc1)C1COC2(CCN(Cc3nccn3C)CC2)C1 (configuration not stated)	-8.93
